The structures appear in SMILES notation.

By inhibition is commonly meant the change of the read-out against control, counted positive when it falls. As usually defined, the EC50 is the concentration giving half of the maximal effect. A word on the IC50: it is the concentration that inhibits the measured activity by half. Read a high IC50 as a need for much substance.

The subject of experiment [1] is MDCK-II. Briefly: Antimigratory activity against MDCK2 cells assessed as inhibition of HGF-induced cell scattering at 1 uM pretreated for 18 hrs followed by HGF addition measured after 20 to 24 hrs by crystal violet staining-based assay relative to control. The experiment is classed as functional. The conditions noted are these: Canis lupus familiaris.
In experiment [2] the test system is MCF7. Nature of the experiment: Antiproliferative activity against human MCF7 cells at 10 uM relative to control. The experiment is classed as functional, cell-based.
Experiment [3] has as its system A2780. Briefly: Antiproliferative activity against human A2780 cells. The experiment is classed as functional, cell-based.
A short description of experiment [4]: (§1) Inhibition of bovine brain tubulin polymerization. Set-up: species or system Bos taurus.
For experiment [5], the species on record is Bos taurus. The description is as §1.

For the compound `Cc1nc(NC(=O)c2cccc([N+](=O)[O-])c2)ccc1Br`, the inhibition at 1 µM in experiment [1] was determined as 88.6%.
On to `O=C(Nc1ccc(-c2ccccc2)cn1)c1cncnc1-c1ccccc1`, for which the EC50 in experiment [2] and in experiment [3] was above 10 µM each time.
With `CN(C(=O)c1cnccn1)c1ccc(-c2ccccc2)cn1`, the EC50 in experiment [2] and in experiment [3] was above 10 µM throughout.
For the compound `Cc1cc(NC(=O)c2cccc([N+](=O)[O-])c2)ccc1O`, in experiment [1], the inhibition at 1 µM was 34.6%.
`O=C(Nc1ccc(-c2cccc(C3CC3)c2)cn1)c1cncnc1`: the IC50 in experiment [4] amounted to 1.03 µM. For the same compound, the inhibition entry in experiment [5] was “Dose-dependent effect”.
Consider `Cc1ncncc1C(=O)Nc1ccc(-c2ccccc2)cn1`, for which the EC50 in experiment [2] and in experiment [3] was above 10 µM each time.
With `Cc1ncc(C(=O)Nc2ccc(-c3cccc(C4CC4)c3)cn2)cn1`, the IC50 in experiment [4] came out at 0.885 µM. In addition, the inhibition entry in experiment [5] is “Dose-dependent effect”.
In the case of `CCOc1ccc(C(=O)Nc2ccc(I)cn2)cc1[N+](=O)[O-]`, the inhibition at 1 µM in experiment [1] is 69.9%.
Take `O=C(Nc1ncc[nH]1)c1nccs1`: in experiment [1], the inhibition at 1 µM is -67%.
With `Cc1nc(NC(=O)c2cncc([N+](=O)[O-])c2)cnc1Br`, the inhibition at 1 µM in experiment [1] was -26%.
As to `Cc1nc(NC(=O)c2cccc([N+](=O)[O-])c2)cnc1Br`, the inhibition at 1 µM in experiment [1] was -33%.
As for `Cc1nc(NC(=O)c2nccs2)ccc1Cl`, the inhibition at 1 µM in experiment [1] was -28%.
On the same count and under the same terms, the figure for `Cc1cc(C)nc(NC(=O)c2cccc([N+](=O)[O-])c2)c1` is 52.5%; for `Cc1nc(NC(=O)c2ccc(N3CCCC3)c([N+](=O)[O-])c2)ccc1I` it is 44%.
As for `O=C(Nc1ccc(-c2ccccc2)cn1)c1cnc(-c2ccco2)nc1`, the EC50 was above 10 µM in experiment [2] and 1.53 µM in experiment [3].
The corresponding values for `O=C(Nc1ccc(-c2ccccc2)cn1)c1ccncn1` are above 10 µM and above 10 µM.
For the compound `Cc1nc(NC(=O)c2cnco2)ccc1I`, the inhibition at 1 µM in experiment [1] worked out at 32%.
Regarding `O=C(Nc1ccc(-c2ccccc2)cc1)c1cncnc1`, the EC50 in experiment [2] and in experiment [3] was above 10 µM throughout.
`O=C(Nc1ccc(-c2ccccc2)cn1)c1ncccn1`: the concentration for a half-maximal effect (EC50) in experiment [2] and in experiment [3] was above 10 µM throughout.
On to `O=C(Cc1cncnc1)Nc1ccc(-c2ccccc2)cn1`, for which the EC50 in experiment [2] and in experiment [3] was above 10 µM each time.
With `O=C(Nc1ccc(-c2ccoc2)cn1)c1cncnc1`, the EC50 amounted to 0.205 µM in experiment [2] and 0.271 µM in experiment [3].
Take `O=C(Nc1ccc(-c2ccccc2)cn1)c1cnco1`: the inhibition at 1 µM in experiment [1] is -10%.
As for `O=S(=O)(Nc1ccc(-c2ccccc2)cn1)c1cccnc1`, the EC50 in experiment [2] and in experiment [3] was above 10 µM each time.
For `O=C(Nc1ncc[nH]1)c1cnco1`, the inhibition at 1 µM in experiment [1] is -50%.
In the case of `Cc1nc(NC(=O)c2cnc3cccnc3c2)cnc1Br`, the inhibition at 1 µM in experiment [1] was -25%.
`Cc1cc(NC(=O)c2ccc(C)c([N+](=O)[O-])c2)c(C)cc1I`: in experiment [1], the inhibition at 1 µM turned out to be 46.9%.
Same read-out and setting: to `Cc1nc(NC(=O)c2cccc(C(F)(F)F)c2)ccc1I` belongs 72%.
With `O=C(Nc1ccc(-c2cccnc2)cn1)c1cncnc1`, the values for the EC50 in experiment [2] and in experiment [3] were 6.97 µM and 5.92 µM, respectively.
Compound `Cc1ccc(C(=O)Nc2ccc(-c3cccc(C4CCO4)c3)cn2)cn1` (stereo unspecified) registered an IC50 in experiment [4] of 0.295 µM. The inhibition entry in experiment [5] was “Dose-dependent effect”.
For `O=C(Nc1cnc(-c2ccccc2)cn1)c1cncnc1`, the EC50 in experiment [2] is 8.33 µM; in experiment [3], above 10 µM.
On to `O=C(Nc1ccc(-c2ccccc2)cn1)c1cnc2cccnc2c1`, for which the inhibition at 1 µM in experiment [1] was 181%.
Regarding `O=C(Nc1ccc(-c2ccccc2)cn1)c1cncc([N+](=O)[O-])c1`, the inhibition at 1 µM in experiment [1] is -32%.
Compound `Cc1ncc(C(=O)Nc2ccc(-c3cccc(NC4CC4)c3)cn2)cn1` had an IC50 in experiment [4] of 0.319 µM. Further, the inhibition entry in experiment [5] was “Dose-dependent effect”.
Consider `Cc1cc(NC(=O)c2cccc([N+](=O)[O-])c2C)c(C)cc1I`, for which the inhibition at 1 µM in experiment [1] is 36.1%.
As to `O=C(COc1cncnc1)Nc1ccc(-c2ccccc2)cn1`, the concentration for a half-maximal effect (EC50) in experiment [2] and in experiment [3] was above 10 µM throughout.
For `O=C(Nc1cscn1)c1cccc(C(F)(F)F)c1`, the inhibition at 1 µM in experiment [1] was -73%.
In the case of `O=C(Nc1ncc(Br)cc1Br)c1cccc([N+](=O)[O-])c1`, the inhibition at 1 µM in experiment [1] is 42.4%.
Regarding `O=C(Nc1ccc(-c2ccccc2Cl)cn1)c1cncnc1`, the EC50 in experiment [2] came to 0.127 µM; in experiment [3], 0.255 µM.
`O=C(Nc1ccc2ccccc2n1)c1cncnc1`: in experiment [1], the inhibition at 1 µM is -55%.
The same measure, in the same setting: the figure for `O=C(Nc1cscn1)c1cnco1` is -54%.
As to `O=C(Nc1ccc(-c2ccco2)cn1)c1cncnc1`, the values for the concentration for a half-maximal effect (EC50) in experiment [2] and in experiment [3] were 0.605 µM and 0.196 µM, respectively.
Consider `c1ccc(-c2ccc(NCc3cncnc3)nc2)cc1`, for which the EC50 in experiment [2] and in experiment [3] was above 10 µM throughout.
On to `O=C(Nc1ccc(-c2ccsc2)cn1)c1cncnc1`, for which the EC50 in experiment [2] stood at 0.066 µM; in experiment [3] it was 0.06 µM.
Consider `Cc1nc(NC(=O)c2cc([N+](=O)[O-])ccc2N2CCOCC2)ccc1I`, for which the inhibition at 1 µM in experiment [1] was found to be 31.7%.
Take `Cc1nc(NC(=O)c2nccs2)cnc1Br`: the inhibition at 1 µM in experiment [1] was -36%.
In the case of `Cc1nc(NC(=O)c2cncnc2)ccc1Cl`, the inhibition at 1 µM in experiment [1] is -18%.
Consider `O=C(Nc1ccc(-c2ccc(Cl)cc2)cn1)c1cncnc1`, for which the 50% effective concentration (EC50) in experiment [2] and in experiment [3] was above 10 µM each time.
Take `O=C(Nc1ccc2ccccc2n1)c1cncc([N+](=O)[O-])c1`: the inhibition at 1 µM in experiment [1] is -63%.
On to `O=C(Nc1ccc(-c2ccccc2)cn1)c1nccs1`, for which the inhibition at 1 µM in experiment [1] is -13%.
As for `O=C(Nc1ccc2ccccc2n1)c1nccs1`, the inhibition at 1 µM in experiment [1] was -51%.
`Cc1nc(NC(=O)c2cncc([N+](=O)[O-])c2)ccc1I`: the inhibition at 1 µM in experiment [1] was found to be 21%.
For the compound `Cc1nc(NC(=O)c2nccs2)ccc1I`, the inhibition at 1 µM in experiment [1] was -20%.
The same measure, in the same setting: to `Cc1nc(NC(=O)c2cncnc2)cnc1Br` belongs -42%.
Regarding `O=C(Nc1ccc(-c2ccccc2)cn1)c1cccc(C(F)(F)F)c1`, in experiment [1], the inhibition at 1 µM is -2%.
`Cc1nc(NC(=O)c2cccc(C(F)(F)F)c2)ccc1Cl`: the inhibition at 1 µM in experiment [1] is -13%.
As for `O=C(Nc1ccccn1)c1cccc([N+](=O)[O-])c1`, in experiment [1], the inhibition at 1 µM is 45.3%.
`CNc1ncc(C(=O)Nc2ccc(-c3ccccc3)cn2)cn1`: the figures for the EC50 in experiment [2] and in experiment [3] were 0.149 µM and 0.049 µM, respectively.
Turning to `Cc1nc(NC(=O)c2cccc(C(F)(F)F)c2)cnc1Br`, the inhibition at 1 µM in experiment [1] was -6%.
For the compound `Cc1nc(NC(=O)c2cccc([N+](=O)[O-])c2)ccc1Cl`, the inhibition at 1 µM in experiment [1] is -5%.
As to `O=C(Nc1ncc[nH]1)c1cccc([N+](=O)[O-])c1`, in experiment [1], the inhibition at 1 µM was -77%.
In the case of `O=C(Nc1ccc(-c2ccccc2)cn1)c1nccnc1-c1ccccc1`, the EC50 in experiment [2] and in experiment [3] was above 10 µM throughout.
On to `Cc1nc(NC(=O)c2cncc([N+](=O)[O-])c2)ccc1Cl`, for which the inhibition at 1 µM in experiment [1] is -20%.
Take `CSc1ncncc1C(=O)Nc1ccc(-c2ccccc2)cn1`: the EC50 in experiment [2] and in experiment [3] was above 10 µM throughout.
On to `O=C(Nc1ncc(-c2ccccc2)cn1)c1cncnc1`, for which the results for the concentration giving a half-maximal response (EC50) in experiment [2] and in experiment [3] were 0.272 µM and 0.068 µM, respectively.
Consider `Cc1nc(NC(=O)c2cnco2)ccc1Cl`, for which the inhibition at 1 µM in experiment [1] was -35%.
On to `O=C(Nc1ccc(-c2ccccc2)cn1)c1cccnc1`, for which the figures for the EC50 in experiment [2] and in experiment [3] were 0.22 µM and 0.078 µM, respectively.
In the case of `O=C(Nc1ccc(-c2ccccn2)cn1)c1cncnc1`, the EC50 in experiment [2] came to 0.651 µM; in experiment [3] it was 0.612 µM.
`O=C(Nc1cscn1)c1cncnc1`: the inhibition at 1 µM in experiment [1] is -103%.
For `O=C(Nc1cncnc1)c1ccc(-c2ccccc2)cn1`, the EC50 in experiment [2] and in experiment [3] was above 10 µM each time.
Take `O=C(Nc1ccc(C2CC2)cn1)c1cncnc1`: the 50% effective concentration (EC50) in experiment [2] was determined as 0.776 µM; in experiment [3], 0.464 µM.
With `Cc1nc(NC(=O)c2cnco2)cnc1Br`, the inhibition at 1 µM in experiment [1] was -21%.
Turning to `CCOc1ccc(C(=O)Nc2cccc(C)n2)cc1[N+](=O)[O-]`, the inhibition at 1 µM in experiment [1] was determined as 31.7%.
As to `O=C(Nc1ccc2ccccc2n1)c1cccc(C(F)(F)F)c1`, in experiment [1], the inhibition at 1 µM was -59%.
Turning to `Cc1nc(NC(=O)c2ccc(N3CCCCC3)c([N+](=O)[O-])c2)ccc1I`, the inhibition at 1 µM in experiment [1] stood at 29.4%.
As for `O=C(Nc1ccc2ccccc2n1)c1cnco1`, the inhibition at 1 µM in experiment [1] was -58%.
Take `Cc1nc(NC(=O)c2cnc3cccnc3c2)ccc1Cl`: the inhibition at 1 µM in experiment [1] stood at 12%.
For the compound `O=C(Nc1ncc[nH]1)c1cccc(C(F)(F)F)c1`, the inhibition at 1 µM in experiment [1] is -72%.
For the compound `O=C(Nc1ccc2ccccc2n1)c1cnc2cccnc2c1`, the inhibition at 1 µM in experiment [1] was -69%.
`CC[C@]1(O)C[C@H]2CN(CCc3c([nH]c4ccccc34)[C@@](C(=O)OC)(c3cc4c(cc3OC)N(C=O)[C@H]3[C@@](O)(C(=O)OC)[C@H](OC(C)=O)[C@]5(CC)C=CCN6CC[C@]43[C@@H]65)C2)C1` [VINCRISTINE]: in experiment [4], the IC50 lay in the range of 0.4 to 0.684 µM.
On to `O=C(Nc1ccc(-c2ccncc2)cn1)c1cncnc1`, for which the values for the EC50 in experiment [2] and in experiment [3] were above 10 µM and 4.67 µM, respectively.
Take `Cc1cc(NC(=O)c2cccc([N+](=O)[O-])c2)ccc1I`: the inhibition at 1 µM in experiment [1] is 53.1%.
Consider `Cc1ncc(C(=O)Nc2ccc(-c3ccccc3)cn2)cn1`, for which the figures for the EC50 in experiment [2] and in experiment [3] were 0.109 µM and 0.029 µM, respectively.
In experiment [4], `Cc1ncc(C(=O)Nc2ccc(-c3cccc(OC4CC4)c3)cn2)cn1` showed a concentration for half-maximal inhibition (IC50) of 0.817 µM. Further, the inhibition entry in experiment [5] was “Dose-dependent effect”.
Regarding `O=C(Nc1ccc(-c2ccccc2)cn1)c1cnccn1`, the values for the half-maximal effective concentration (EC50) in experiment [2] and in experiment [3] were 0.317 µM and 0.102 µM, respectively.
In the case of `Cc1nc(NC(=O)c2cnc3cccnc3c2)ccc1I`, the inhibition at 1 µM in experiment [1] stood at 33%.
Consider `O=C(Nc1ccc(-c2ccccc2)cn1)c1cccc([N+](=O)[O-])c1`, for which the inhibition at 1 µM in experiment [1] amounted to 29%.
The same measure, in the same setting: the figure for `O=C(Nc1ccc2ccccc2n1)c1cccc([N+](=O)[O-])c1` is -59%.

The values above are taken from ChEMBL document CHEMBL4043145, “Pyridine-pyrimidine amides that prevent HGF-induced epithelial scattering by two distinct mechanisms” (Bioorg Med Chem Lett, 2017).
